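Grown in 96-well plates, cells were treated for 48 hours with each compound at five concentrations. Insufficient inhibition: endpoint recorded as highest concentration tested. GI50: concentration for 50% inhibition of growth.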 Activity calls are given as the source filed them. Rule as the data show it: active = GI50 up to about 1.1 µM and inactive = higher. A value given as a limit tells only on which side of the number the result lay.

Among the test systems are SNB-19; SN12C; EKVX; OVCAR-8; HCT-116; NCI-H226; SNB-75; MOLT-4; HL-60; HCT-15; COLO 205; HOP-92; CAKI-1; RXF 393; OVCAR-5; NCI-H460; SK-MEL-5; UACC-257.
What all share (assay): NCI tumour cell line growth inhibition, 48 h

`COc1ccc(/C=N/n2cnc3c(c2=O)S/C(=C2/SC(=S)N(c4ccc(C)cc4)C2=O)N3c2ccccc2)cc1`: the GI50 in the experiment with SNB-19 is 28.4 µM (inactive); in the experiment with SN12C, > 100 µM (inactive); in the experiment on EKVX, > 100 µM (inactive); in the experiment on OVCAR-8 it was 70.5 µM (inactive); in the experiment with HCT-116, 56 µM (inactive); with NCI-H226 it was > 100 µM (inactive). In addition, the GI50 in the experiment on SNB-75 is > 100 µM (inactive); with MOLT-4 it was > 10 µM (inactive); with HL-60, 58.5 µM (inactive); in the experiment on HCT-15 it was above 100 µM; in the experiment on COLO 205 it was > 100 µM (inactive); in the experiment on HOP-92, 25.8 µM (inactive). The GI50 is > 10 µM (inactive) in the experiment with CAKI-1, 17.3 µM (inactive) in the experiment on RXF 393, > 100 µM (inactive) in the experiment on OVCAR-5 and 68.7 µM (inactive) with NCI-H460.

`CCOC(=O)NC1CC2CCC1(OC)C=C2C` (centres undefined): the GI50 in the experiment with SNB-19, in the experiment on SN12C, in the experiment on EKVX, in the experiment with OVCAR-8, in the experiment on HCT-116 and with NCI-H226 was > 100 µM (inactive) throughout. Further, the GI50 in the experiment with SNB-75 is > 100 µM (inactive); in the experiment with MOLT-4 it was > 100 µM (inactive); with HL-60 it was > 100 µM (inactive); in the experiment on HCT-15, above 100 µM; in the experiment with SK-MEL-5, > 100 µM (inactive); with COLO 205, > 100 µM (inactive). For the same compound, the GI50 was > 100 µM (inactive) in the experiment on HOP-92; > 53.5 µM (inactive) in the experiment on CAKI-1; > 100 µM (inactive) in the experiment with RXF 393; > 100 µM (inactive) in the experiment on UACC-257; > 100 µM (inactive) in the experiment with OVCAR-5; > 100 µM (inactive) in the experiment on NCI-H460.

As to `COC(=O)c1s/c(=N\C(=S)N(C)C)n(-c2ccc(Cl)cc2)c1C(=O)OC`, the GI50 with SNB-19, with SN12C, in the experiment on EKVX, in the experiment with OVCAR-8, in the experiment with HCT-116 and in the experiment with NCI-H226 was > 100 µM (inactive) throughout. The GI50 in the experiment with SNB-75 is > 10 µM (inactive); in the experiment with MOLT-4, > 100 µM (inactive); in the experiment on HL-60 it was > 100 µM (inactive); in the experiment on HCT-15, above 100 µM; in the experiment with SK-MEL-5 it was > 10 µM (inactive); in the experiment on COLO 205 it was > 100 µM (inactive). Also, the GI50 in the experiment on CAKI-1 is 59.2 µM (inactive); in the experiment on RXF 393, 78.9 µM (inactive); with UACC-257, > 100 µM (inactive); in the experiment with OVCAR-5, > 100 µM (inactive); in the experiment with NCI-H460 it was 71.8 µM (inactive).

For the compound `Cc1noc(/N=C2\C=C(Nc3onc(C)c3C)C(=O)c3ccccc32)c1C`, the GI50 in the experiment with SNB-19 is > 100 µM (inactive); in the experiment with SN12C, > 100 µM (inactive); with EKVX, > 100 µM (inactive); in the experiment on OVCAR-8 it was 16 µM (inactive); in the experiment with HCT-116, 95.5 µM (inactive); in the experiment on NCI-H226 it was > 100 µM (inactive). The GI50 with SNB-75 is 69.3 µM (inactive); with MOLT-4 it was > 100 µM (inactive); in the experiment on HL-60, 18.7 µM (inactive); in the experiment with HCT-15, above 100 µM; in the experiment with SK-MEL-5 it was 15.6 µM (inactive); with COLO 205, > 100 µM (inactive). Also, the GI50 was > 100 µM (inactive) with HOP-92; > 100 µM (inactive) in the experiment with CAKI-1; > 100 µM (inactive) in the experiment on RXF 393; 36.7 µM (inactive) with UACC-257; > 100 µM (inactive) in the experiment with OVCAR-5; > 100 µM (inactive) in the experiment on NCI-H460.

As for `CC1=NOC(=O)C1/N=N/c1ccc(Br)c(C)c1` (centres undefined), the GI50 is 31.2 µM (inactive) in the experiment on SNB-19; 18.2 µM (inactive) in the experiment with SN12C; 18 µM (inactive) in the experiment on EKVX; 17.9 µM (inactive) with OVCAR-8; 17.7 µM (inactive) with HCT-116; 25.5 µM (inactive) in the experiment on NCI-H226. In addition, the GI50 in the experiment on SNB-75 is 30.5 µM (inactive); with MOLT-4, 18.4 µM (inactive); with HL-60, 8.39 µM (inactive); with HCT-15, 19.3 µM; with SK-MEL-5, 12.7 µM (inactive); with COLO 205 it was 25 µM (inactive). Also, the GI50 in the experiment on HOP-92 was 17.3 µM (inactive); in the experiment on CAKI-1 it was 16.1 µM (inactive); with RXF 393, 19.7 µM (inactive); with UACC-257, 17.5 µM (inactive); in the experiment on OVCAR-5, 24.9 µM (inactive); with NCI-H460 it was 23.9 µM (inactive).

Consider `CC(C)(C)C1=CC(=N/N=c2\scc(-c3ccccc3)n2Cc2ccccc2)C=C(C(C)(C)C)C1=O`, for which the GI50 with SNB-19, with SN12C, in the experiment with EKVX, with OVCAR-8, in the experiment on HCT-116 and in the experiment with NCI-H226 was > 100 µM (inactive) throughout. Besides, the GI50 in the experiment on SNB-75 is > 100 µM (inactive); with MOLT-4, > 100 µM (inactive); with HL-60, > 100 µM (inactive); in the experiment on HCT-15, above 100 µM; in the experiment on SK-MEL-5, > 100 µM (inactive); with COLO 205, > 100 µM (inactive). The GI50 with CAKI-1, with RXF 393, in the experiment on UACC-257, in the experiment on OVCAR-5 and in the experiment with NCI-H460 was > 100 µM (inactive) throughout.

Take `CC1=CC(C)(C)N=C2SC(c3ccc(N)cc3)=NN12`: the GI50 was > 87.3 µM (inactive) in the experiment with SNB-19; > 95.9 µM (inactive) in the experiment on SN12C; 24.9 µM (inactive) in the experiment with EKVX; 55.7 µM (inactive) in the experiment on OVCAR-8; 41 µM (inactive) in the experiment with HCT-116; > 94.6 µM (inactive) with NCI-H226. The GI50 in the experiment on SNB-75 is > 52.5 µM (inactive); in the experiment with MOLT-4, 42.2 µM (inactive); in the experiment with HL-60, 18.1 µM (inactive); with HCT-15, 31.6 µM; with SK-MEL-5, 70.3 µM (inactive); with COLO 205, 42.8 µM (inactive). Further, the GI50 in the experiment with HOP-92 was 51.8 µM (inactive); in the experiment on CAKI-1 it was 61.8 µM (inactive); in the experiment on RXF 393 it was > 100 µM (inactive); in the experiment on UACC-257 it was > 94 µM (inactive); with OVCAR-5, 49.7 µM (inactive); in the experiment with NCI-H460, 52.4 µM (inactive).

As for `CCOc1ccc(NC(=O)CC2SC(N)=NC2=O)cc1` (centres undefined), the GI50 in the experiment on SNB-19, with SN12C, with EKVX, with OVCAR-8, in the experiment with HCT-116 and in the experiment on NCI-H226 was > 100 µM (inactive) in each case. Besides, the GI50 with SNB-75 was > 100 µM (inactive); in the experiment on MOLT-4, > 100 µM (inactive); in the experiment with HL-60 it was > 100 µM (inactive); in the experiment with SK-MEL-5, > 100 µM (inactive); in the experiment with COLO 205, > 100 µM (inactive); with HOP-92, 55.8 µM (inactive). The GI50 with RXF 393, with UACC-257, with OVCAR-5 and in the experiment on NCI-H460 was > 100 µM (inactive) each time.

With `COc1cc([C@@H]2c3cc4c(cc3[C@@H](NC(=O)c3ccc(C(C)=O)cc3)C3COC(=O)[C@@H]32)OCO4)cc(OC)c1O` (some centres undefined), the GI50 in the experiment on SNB-19 was 0.29 µM (active); in the experiment with SN12C, 0.275 µM (active); with EKVX, 1.89 µM (inactive); in the experiment with OVCAR-8, 1.35 µM (inactive); in the experiment on HCT-116, 0.52 µM (active); in the experiment with NCI-H226, 0.159 µM (active). Further, the GI50 in the experiment on SNB-75 was 1.24 µM (inactive); with MOLT-4, < 0.01 µM (active); in the experiment on HL-60, 0.0867 µM (active); in the experiment on HCT-15, 2.46 µM; in the experiment with SK-MEL-5 it was 1.46 µM (inactive); in the experiment on COLO 205, 3.61 µM (inactive). Besides, the GI50 in the experiment with HOP-92 is 1.19 µM (inactive); in the experiment with CAKI-1, 1.9 µM (inactive); with RXF 393 it was 3.76 µM (inactive); in the experiment with UACC-257, 3.88 µM (inactive); with OVCAR-5, 0.895 µM (active); with NCI-H460, < 0.01 µM (active).

For the compound `CC1=C2O[B-](c3ccccc3)(c3ccccc3)[O+]=C2C=CN1`, the GI50 with SNB-19 is 37.3 µM (inactive); in the experiment on SN12C, 45.7 µM (inactive); in the experiment with EKVX, 28.8 µM (inactive); with OVCAR-8, 41.2 µM (inactive); in the experiment with HCT-116, 42.6 µM (inactive); with SNB-75 it was 22.8 µM (inactive). In addition, the GI50 was 20.2 µM (inactive) with MOLT-4; 27.4 µM (inactive) in the experiment on HL-60; 32.3 µM with HCT-15; 21.5 µM (inactive) in the experiment on SK-MEL-5; 45.1 µM (inactive) with COLO 205; 22.1 µM (inactive) with HOP-92. Further, the GI50 in the experiment with CAKI-1 was 21.8 µM (inactive); in the experiment with RXF 393, 26.4 µM (inactive); with UACC-257, 27.7 µM (inactive); in the experiment on NCI-H460 it was 49.9 µM (inactive).

In the case of `CC(=O)OC12c3ccccc3C1CCCC21OCCCO1` (centres undefined), the GI50 with SNB-19, in the experiment with SN12C, in the experiment with EKVX, in the experiment with OVCAR-8, with HCT-116 and in the experiment with NCI-H226 was > 100 µM (inactive) throughout. Moreover, the GI50 in the experiment with SNB-75 is 37.5 µM (inactive); with MOLT-4, > 100 µM (inactive); in the experiment on HCT-15, above 100 µM; in the experiment with COLO 205, > 100 µM (inactive); with CAKI-1, > 100 µM (inactive); with RXF 393, > 100 µM (inactive). In addition, the GI50 in the experiment on UACC-257, in the experiment on OVCAR-5 and with NCI-H460 was > 100 µM (inactive) each time.

As to `CN(/N=C/c1cccc2cccnc12)c1ccccc1`, the GI50 is 59.8 µM (inactive) in the experiment with SNB-19; > 100 µM (inactive) in the experiment on SN12C; > 100 µM (inactive) in the experiment on EKVX; > 100 µM (inactive) in the experiment with OVCAR-8; > 100 µM (inactive) with NCI-H226; 20.4 µM (inactive) with SNB-75. The GI50 was > 100 µM (inactive) with MOLT-4; > 100 µM (inactive) in the experiment with HL-60; above 100 µM with HCT-15; > 100 µM (inactive) in the experiment on SK-MEL-5; > 100 µM (inactive) in the experiment on COLO 205; 51.9 µM (inactive) in the experiment with HOP-92. For the same compound, the GI50 was 7.85 µM (inactive) in the experiment on CAKI-1; 41.9 µM (inactive) in the experiment on RXF 393; 52 µM (inactive) in the experiment on UACC-257; > 100 µM (inactive) in the experiment with OVCAR-5; 79.6 µM (inactive) in the experiment on NCI-H460.
